The test system of assay [1] is Tyrosine-protein kinase ABL1 (Homo sapiens), P00519 [M351T]. The assay is described as follows: Inhibition of phosphorylated ABL1 M351T mutant (unknown origin) at 1 uM by Ambit Kinomescan binding assay relative to control; values are per cent of control.
Assay [2] deals with Tyrosine-protein kinase ABL1 (Homo sapiens), P00519 [F317I]. Nature of the assay: Inhibition of phosphorylated ABL1 F317I mutant (unknown origin) at 1 uM by Ambit Kinomescan binding assay relative to control; values are per cent of control.
In assay [3] the target is Serine/threonine-protein kinase mTOR (Homo sapiens) (UniProt P42345). The assay is described as follows: Inhibition of MTOR (unknown origin) at 1 uM by Ambit Kinomescan binding assay relative to control.
For assay [4], the target named is T1, Mitogen-activated protein kinase kinase kinase 6 (Homo sapiens) (UniProt O95382).
T1 sequence (whole entry): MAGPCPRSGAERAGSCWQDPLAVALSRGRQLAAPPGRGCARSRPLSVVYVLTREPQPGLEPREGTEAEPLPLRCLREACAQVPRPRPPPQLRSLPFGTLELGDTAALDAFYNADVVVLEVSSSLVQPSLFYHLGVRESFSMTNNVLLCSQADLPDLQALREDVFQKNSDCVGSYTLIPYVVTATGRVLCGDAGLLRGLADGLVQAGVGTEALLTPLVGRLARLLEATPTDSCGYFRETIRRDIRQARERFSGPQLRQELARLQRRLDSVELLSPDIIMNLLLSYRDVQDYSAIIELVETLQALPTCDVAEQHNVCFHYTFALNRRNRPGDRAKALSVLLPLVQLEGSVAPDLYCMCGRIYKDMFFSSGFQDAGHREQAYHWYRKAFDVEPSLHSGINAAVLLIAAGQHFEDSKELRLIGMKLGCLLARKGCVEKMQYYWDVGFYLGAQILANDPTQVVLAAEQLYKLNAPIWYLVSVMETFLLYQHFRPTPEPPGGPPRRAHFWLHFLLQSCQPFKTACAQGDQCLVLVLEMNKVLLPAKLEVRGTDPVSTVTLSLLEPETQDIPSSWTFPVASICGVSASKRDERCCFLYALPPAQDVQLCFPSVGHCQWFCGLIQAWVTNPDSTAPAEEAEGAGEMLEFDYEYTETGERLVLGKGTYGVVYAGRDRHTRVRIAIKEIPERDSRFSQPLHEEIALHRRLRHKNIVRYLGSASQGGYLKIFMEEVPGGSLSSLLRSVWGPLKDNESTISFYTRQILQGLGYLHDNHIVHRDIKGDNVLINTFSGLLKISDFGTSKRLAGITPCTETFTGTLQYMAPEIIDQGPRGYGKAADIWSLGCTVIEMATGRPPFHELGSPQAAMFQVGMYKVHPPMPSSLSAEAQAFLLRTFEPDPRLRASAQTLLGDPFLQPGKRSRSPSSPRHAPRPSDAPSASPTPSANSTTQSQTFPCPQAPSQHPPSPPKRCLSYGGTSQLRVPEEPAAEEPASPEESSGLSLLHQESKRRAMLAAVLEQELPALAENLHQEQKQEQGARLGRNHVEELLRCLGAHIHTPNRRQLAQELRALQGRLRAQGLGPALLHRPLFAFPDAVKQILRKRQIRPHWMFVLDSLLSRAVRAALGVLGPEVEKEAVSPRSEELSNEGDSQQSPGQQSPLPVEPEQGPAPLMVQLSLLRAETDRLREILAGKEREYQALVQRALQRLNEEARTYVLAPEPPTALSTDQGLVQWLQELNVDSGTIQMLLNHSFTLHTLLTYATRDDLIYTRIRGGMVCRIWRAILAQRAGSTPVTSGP
Nature of the assay: Inhibition of MAP3K6 Lys1 labeling site harbouring IAIKEIPER in human A-375 cells at 5 uM by KiNativ Profiling analysis relative to control. Type of assay: cell-based.

In assay [5] the target is T2, Serine/threonine-protein kinase LATS1 (Homo sapiens) (UniProt O95835).
T2 sequence (whole entry): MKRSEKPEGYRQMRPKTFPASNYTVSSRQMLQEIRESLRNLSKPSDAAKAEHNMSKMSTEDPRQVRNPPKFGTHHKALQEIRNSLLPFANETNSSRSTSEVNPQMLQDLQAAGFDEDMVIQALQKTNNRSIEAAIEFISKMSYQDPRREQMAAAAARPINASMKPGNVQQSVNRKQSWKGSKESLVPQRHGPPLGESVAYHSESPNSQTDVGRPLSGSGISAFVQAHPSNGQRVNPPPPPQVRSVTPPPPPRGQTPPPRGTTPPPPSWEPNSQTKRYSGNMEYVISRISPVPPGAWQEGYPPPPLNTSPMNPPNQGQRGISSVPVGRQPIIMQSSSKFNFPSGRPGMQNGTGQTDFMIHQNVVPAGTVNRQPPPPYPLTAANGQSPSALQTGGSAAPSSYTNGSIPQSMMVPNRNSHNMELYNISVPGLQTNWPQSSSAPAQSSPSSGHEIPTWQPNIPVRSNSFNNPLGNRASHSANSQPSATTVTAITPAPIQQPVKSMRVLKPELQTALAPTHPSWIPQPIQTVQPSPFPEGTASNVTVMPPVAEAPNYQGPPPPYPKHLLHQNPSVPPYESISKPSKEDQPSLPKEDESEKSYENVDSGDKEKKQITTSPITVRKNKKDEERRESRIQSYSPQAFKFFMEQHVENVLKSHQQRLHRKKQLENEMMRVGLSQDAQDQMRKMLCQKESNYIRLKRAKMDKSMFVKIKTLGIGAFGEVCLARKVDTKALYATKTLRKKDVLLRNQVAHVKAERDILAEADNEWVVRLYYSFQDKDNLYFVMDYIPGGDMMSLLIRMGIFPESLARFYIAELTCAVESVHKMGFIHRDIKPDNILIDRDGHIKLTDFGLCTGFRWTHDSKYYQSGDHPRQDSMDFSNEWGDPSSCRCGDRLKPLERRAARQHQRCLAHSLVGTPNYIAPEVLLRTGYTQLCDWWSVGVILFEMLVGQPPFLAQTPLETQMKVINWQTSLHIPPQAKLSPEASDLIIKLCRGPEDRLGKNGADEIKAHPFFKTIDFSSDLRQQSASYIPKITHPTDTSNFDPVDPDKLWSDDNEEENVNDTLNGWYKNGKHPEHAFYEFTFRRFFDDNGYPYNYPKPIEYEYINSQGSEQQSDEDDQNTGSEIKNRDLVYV
Nature of the assay: Inhibition of LATS1 Lys2 labeling site in human A-375 cells at 0.5 uM by KiNativ Profiling analysis relative to control. Type of assay: cell-based.

Assay [6] deals with Serine/threonine-protein kinase SMG1 (Homo sapiens) (UniProt Q96Q15). Nature of the assay: Inhibition of SMG1 ATP labeling site harbouring DTVTIHSVGGTITILPTKTKPK in human A-375 cells at 0.05 uM by KiNativ Profiling analysis relative to control. The assay is classed as cell-based.
Chain of Serine/threonine-protein kinase SMG1 (Homo sapiens) (Q96Q15 whole entry, canonical isoform): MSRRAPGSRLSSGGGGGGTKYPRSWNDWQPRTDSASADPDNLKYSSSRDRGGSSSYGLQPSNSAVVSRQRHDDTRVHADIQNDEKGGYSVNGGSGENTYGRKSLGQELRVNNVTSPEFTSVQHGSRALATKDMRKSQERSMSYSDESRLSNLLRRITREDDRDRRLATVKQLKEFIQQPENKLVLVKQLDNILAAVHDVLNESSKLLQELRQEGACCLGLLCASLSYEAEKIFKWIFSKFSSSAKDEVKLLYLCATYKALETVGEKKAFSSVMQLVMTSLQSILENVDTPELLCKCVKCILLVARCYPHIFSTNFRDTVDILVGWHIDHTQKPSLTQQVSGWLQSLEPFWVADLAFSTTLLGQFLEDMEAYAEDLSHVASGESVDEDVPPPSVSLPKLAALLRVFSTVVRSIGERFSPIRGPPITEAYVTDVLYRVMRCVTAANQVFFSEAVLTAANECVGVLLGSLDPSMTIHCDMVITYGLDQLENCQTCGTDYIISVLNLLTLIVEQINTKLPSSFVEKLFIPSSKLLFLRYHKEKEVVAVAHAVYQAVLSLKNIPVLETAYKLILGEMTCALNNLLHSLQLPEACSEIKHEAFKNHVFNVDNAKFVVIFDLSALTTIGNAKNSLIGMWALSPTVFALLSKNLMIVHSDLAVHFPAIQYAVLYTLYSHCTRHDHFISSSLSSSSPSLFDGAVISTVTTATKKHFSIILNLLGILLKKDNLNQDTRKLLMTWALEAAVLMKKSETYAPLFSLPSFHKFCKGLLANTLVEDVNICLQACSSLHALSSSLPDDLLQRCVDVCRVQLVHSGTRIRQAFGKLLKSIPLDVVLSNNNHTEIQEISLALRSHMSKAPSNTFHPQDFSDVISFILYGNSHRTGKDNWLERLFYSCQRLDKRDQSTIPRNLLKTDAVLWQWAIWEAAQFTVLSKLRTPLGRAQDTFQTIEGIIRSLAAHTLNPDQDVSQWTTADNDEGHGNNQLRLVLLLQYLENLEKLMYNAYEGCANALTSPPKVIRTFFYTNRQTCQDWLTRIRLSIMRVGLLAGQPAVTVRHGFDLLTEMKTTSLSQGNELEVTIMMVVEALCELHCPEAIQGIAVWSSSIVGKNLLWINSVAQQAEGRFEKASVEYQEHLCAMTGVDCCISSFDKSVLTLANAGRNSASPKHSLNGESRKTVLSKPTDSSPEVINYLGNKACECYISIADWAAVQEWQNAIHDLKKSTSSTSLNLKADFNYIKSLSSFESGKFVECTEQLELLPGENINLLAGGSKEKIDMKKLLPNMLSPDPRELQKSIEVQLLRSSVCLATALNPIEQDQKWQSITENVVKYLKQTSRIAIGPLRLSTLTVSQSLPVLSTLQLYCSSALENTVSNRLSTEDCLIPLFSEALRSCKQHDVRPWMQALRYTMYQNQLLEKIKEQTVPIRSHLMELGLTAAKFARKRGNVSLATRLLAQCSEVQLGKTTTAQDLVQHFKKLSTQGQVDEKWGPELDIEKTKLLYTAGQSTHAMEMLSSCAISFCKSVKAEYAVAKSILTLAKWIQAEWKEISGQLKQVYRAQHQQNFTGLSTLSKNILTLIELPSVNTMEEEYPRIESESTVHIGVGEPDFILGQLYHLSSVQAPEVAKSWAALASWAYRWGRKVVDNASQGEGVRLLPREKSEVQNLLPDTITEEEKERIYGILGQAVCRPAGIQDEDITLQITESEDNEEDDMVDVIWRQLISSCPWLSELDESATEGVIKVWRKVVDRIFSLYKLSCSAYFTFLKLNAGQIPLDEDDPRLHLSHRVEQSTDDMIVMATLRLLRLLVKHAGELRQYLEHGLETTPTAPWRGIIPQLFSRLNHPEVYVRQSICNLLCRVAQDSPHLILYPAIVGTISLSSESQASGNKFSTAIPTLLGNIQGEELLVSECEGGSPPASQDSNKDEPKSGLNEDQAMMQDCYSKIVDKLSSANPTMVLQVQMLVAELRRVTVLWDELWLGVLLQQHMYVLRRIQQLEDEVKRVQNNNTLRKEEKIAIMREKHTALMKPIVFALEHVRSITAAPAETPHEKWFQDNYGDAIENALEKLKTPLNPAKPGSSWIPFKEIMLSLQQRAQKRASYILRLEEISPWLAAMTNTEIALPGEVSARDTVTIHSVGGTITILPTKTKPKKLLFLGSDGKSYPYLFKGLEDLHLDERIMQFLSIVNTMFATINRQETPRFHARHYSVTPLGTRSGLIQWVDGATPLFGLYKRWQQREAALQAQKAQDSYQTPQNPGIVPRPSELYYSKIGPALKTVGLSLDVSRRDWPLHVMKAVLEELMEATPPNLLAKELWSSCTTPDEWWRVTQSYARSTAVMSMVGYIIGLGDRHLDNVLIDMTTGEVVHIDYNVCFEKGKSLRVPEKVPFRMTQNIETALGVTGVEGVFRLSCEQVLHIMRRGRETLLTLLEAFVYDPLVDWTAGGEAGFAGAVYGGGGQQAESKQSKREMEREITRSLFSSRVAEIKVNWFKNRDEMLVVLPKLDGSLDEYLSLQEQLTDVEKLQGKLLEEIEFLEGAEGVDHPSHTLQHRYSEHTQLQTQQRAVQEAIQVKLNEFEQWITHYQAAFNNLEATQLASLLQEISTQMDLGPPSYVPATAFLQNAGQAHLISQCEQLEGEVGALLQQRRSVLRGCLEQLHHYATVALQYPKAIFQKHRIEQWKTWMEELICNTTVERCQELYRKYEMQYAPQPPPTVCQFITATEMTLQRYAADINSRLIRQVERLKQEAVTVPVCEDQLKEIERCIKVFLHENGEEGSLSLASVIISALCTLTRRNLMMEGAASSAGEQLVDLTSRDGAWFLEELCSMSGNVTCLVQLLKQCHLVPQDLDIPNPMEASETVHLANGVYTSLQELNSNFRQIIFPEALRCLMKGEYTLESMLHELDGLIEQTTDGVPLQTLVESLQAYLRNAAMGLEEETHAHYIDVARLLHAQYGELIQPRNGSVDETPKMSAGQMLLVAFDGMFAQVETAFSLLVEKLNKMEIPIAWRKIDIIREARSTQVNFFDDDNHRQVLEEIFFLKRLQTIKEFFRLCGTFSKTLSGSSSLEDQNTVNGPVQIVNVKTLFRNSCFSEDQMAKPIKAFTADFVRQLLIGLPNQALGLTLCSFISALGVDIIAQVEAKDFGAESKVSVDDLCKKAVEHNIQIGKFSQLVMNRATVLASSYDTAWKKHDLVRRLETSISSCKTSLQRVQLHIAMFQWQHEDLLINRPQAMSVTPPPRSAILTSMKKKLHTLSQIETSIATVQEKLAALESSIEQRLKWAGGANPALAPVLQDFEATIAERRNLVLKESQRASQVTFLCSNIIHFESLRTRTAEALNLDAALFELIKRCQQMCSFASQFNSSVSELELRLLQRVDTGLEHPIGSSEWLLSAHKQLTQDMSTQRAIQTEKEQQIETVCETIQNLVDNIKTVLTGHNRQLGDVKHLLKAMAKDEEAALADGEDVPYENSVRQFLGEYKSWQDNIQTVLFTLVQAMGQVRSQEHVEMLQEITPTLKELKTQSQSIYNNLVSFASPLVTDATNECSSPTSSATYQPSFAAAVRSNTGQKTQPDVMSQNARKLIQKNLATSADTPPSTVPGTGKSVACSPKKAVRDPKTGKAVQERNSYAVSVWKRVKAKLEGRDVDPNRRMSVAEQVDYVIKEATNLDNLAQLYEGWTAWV
Assay [7] concerns the target Casein kinase I isoform alpha-like (Homo sapiens) (UniProt Q8N752). Nature of the assay: Inhibition of CSNK1A1L (unknown origin) at 10 uM by Ambit Kinomescan binding assay.
The target of assay [8] is Serine/threonine-protein kinase WNK2 (Homo sapiens) (UniProt Q9Y3S1). The assay is described as follows: Inhibition of Wnk2 Lys2 labeling site in human Huh-7 cell lysate at 1 uM by KiNativ Profiling analysis relative to control. The assay is classed as subcellular.

Each structure is given as a SMILES string. The source made the active and inactive calls. The calls are words filed in the database; no cut-off is given here.

Chain of Casein kinase I isoform alpha-like (Homo sapiens) (Q8N752 whole entry, canonical isoform): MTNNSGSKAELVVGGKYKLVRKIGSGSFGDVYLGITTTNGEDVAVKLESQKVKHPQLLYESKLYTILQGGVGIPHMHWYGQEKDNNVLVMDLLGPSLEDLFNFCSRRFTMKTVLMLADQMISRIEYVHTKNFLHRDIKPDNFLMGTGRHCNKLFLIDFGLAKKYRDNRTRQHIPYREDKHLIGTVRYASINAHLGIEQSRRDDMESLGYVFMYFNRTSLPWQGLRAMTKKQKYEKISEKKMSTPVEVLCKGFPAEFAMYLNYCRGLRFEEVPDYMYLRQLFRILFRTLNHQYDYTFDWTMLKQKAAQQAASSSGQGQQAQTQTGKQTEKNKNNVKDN

Regarding `CCN1CCN(Cc2ccc(NC(=O)c3ccc(C)c(/C=C/c4cnc5[nH]ccc5c4OC)c3)cc2C(F)(F)F)CC1`, the % of control in assay [1] was determined as 4.4%. Besides, in assay [2], the percent of control was 22%. Moreover, the inhibition in assay [3] was 100%.

As to `CCN1CCN(Cc2ccc(NC(=O)c3ccc(C)c(Oc4ccnc5[nH]ccc45)c3)cc2C(F)(F)F)CC1`, the inhibition in assay [4] is -0.6%; in assay [5], -1.1%; in assay [6] it was 2.3%. For the same compound, in assay [7], the inhibition entry was “inactive”.

Consider `CNc1cc(Oc2cc(C(=O)Nc3cc(N4CCN(C)CC4)cc(C(F)(F)F)c3)ccc2C)ncn1`, for which the inhibition in assay [8] was determined as 2.7%.

The values above are taken from ChEMBL document CHEMBL5696442, “Discovery of type II inhibitors of TGFβ-activated kinase 1 (TAK1) and mitogen-activated protein kinase kinase kinase kinase 2 (MAP4K2)” (J Med Chem, 2015).
